Assay results as given in US11236046B2, “Substituted heterocyclic sulfonamide compounds useful as TRPA1 modulators” (Genentech, Inc., priority 2013, dated 2022).

Target: human TRPA1 (Homo sapiens (Human), UniProt O75762)
Assay: IC50 determination on the human TRPA1 channel, calcium fluorescence (Hamamatsu FDSS plate reader)
Format: cell-based
Details: CHO cells expressing human TRPA1; block of cinnamaldehyde induced calcium influx; 20 minutes compound incubation; Hill coefficient fixed to 1.5; read-out: hTRPA1 AUC IC50
Experimental: IC50s (effective concentration) of compounds on the human TRPA1 channel were determined using a Hamamatsu FDSS fluorescence plate reader. CHO cells expressing human TRPA1 were plated into 384-well plates, incubated overnight at 37 C, and loaded with BD calcium indicator dye for 1 hr at 37° C. followed by 15 minutes. at room temperature. The assay buffer was Hank's Balanced Salt Solution (HBSS) containing 20 mM HEPES (pH readjusted to 7.4) along with 0.02% BSA.
Following dye load and plate cool down, compounds were added to the cells using the FDSS while monitoring fluorescence to determine whether any of the test compounds have TRPA1 agonist activity. Plates were then incubated with compound for 20 minutes at room temperature prior to adding agonist. Following this incubation, […] cinnamaldehyde was added to all wells of the plate and block of this cinnamaldehyde induced calcium influx was measured.
Fixing the Hill coefficient will generally reduce variability of the IC50 determination. The IC50s were examined by eye to make sure the MIN and MAX points were set correctly prior to validation of the results.

human TRPA1, sequence (O75762 whole entry): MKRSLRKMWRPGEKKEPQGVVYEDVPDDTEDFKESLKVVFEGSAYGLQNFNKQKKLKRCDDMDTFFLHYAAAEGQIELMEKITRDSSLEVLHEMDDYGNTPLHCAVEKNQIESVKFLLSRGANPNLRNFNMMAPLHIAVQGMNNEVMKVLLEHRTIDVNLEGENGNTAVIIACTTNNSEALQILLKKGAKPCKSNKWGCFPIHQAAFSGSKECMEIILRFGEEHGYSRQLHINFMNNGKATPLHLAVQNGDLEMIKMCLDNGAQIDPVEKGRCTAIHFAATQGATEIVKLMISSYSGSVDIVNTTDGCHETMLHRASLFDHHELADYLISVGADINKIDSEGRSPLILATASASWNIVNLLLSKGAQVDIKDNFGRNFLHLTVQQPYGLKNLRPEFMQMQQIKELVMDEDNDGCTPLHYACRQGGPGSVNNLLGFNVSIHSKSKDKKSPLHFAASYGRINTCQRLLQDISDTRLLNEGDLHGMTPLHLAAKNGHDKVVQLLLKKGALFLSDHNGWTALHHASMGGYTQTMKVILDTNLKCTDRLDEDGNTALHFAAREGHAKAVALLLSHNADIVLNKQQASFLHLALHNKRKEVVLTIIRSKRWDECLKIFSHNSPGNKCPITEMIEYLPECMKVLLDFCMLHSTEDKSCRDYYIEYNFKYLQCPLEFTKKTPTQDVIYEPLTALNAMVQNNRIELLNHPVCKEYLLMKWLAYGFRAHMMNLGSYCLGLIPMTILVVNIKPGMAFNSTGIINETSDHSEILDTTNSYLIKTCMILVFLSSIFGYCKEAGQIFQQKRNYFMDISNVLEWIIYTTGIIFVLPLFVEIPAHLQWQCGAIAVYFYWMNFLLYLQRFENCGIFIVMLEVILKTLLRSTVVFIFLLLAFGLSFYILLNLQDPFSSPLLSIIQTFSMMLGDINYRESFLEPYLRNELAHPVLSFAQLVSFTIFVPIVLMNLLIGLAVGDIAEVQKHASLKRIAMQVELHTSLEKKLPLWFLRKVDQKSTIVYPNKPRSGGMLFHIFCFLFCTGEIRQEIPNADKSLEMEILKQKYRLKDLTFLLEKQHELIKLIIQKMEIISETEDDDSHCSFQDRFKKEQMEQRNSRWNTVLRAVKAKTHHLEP

IC50 [µM]	Compound
0.867	N#C[C@@]1(C(=O)NCc2cc(-c3ccc(C(F)(F)F)nc3)ncn2)CCCN1S(=O)(=O)c1ccc(F)cc1 [Example 32, (R)-2-cyano-1-(4-fluorophenylsulfonyl)-N-((6-(6-(trifluoromethyl)pyridin-3-yl)pyrimidin-4-yl)methyl)pyrrolidine-2-carboxamide]
0.284	O=C(NCc1cc(-c2ccc(C(F)(F)F)nc2)ncn1)[C@]1(CO)CCCN1S(=O)(=O)c1ccc(F)cc1 [Example 7, (R)-1-(4-fluorophenylsulfonyl)-2-(hydroxymethyl)-N-((6-(6-(trifluoromethyl)pyridin-3-yl)pyrimidin-4-yl)methyl)pyrrolidine-2-carboxamide]
0.059	C[C@@]1(C(=O)NCc2cc(-c3ccc(C(F)(F)F)nc3)ncn2)CCN1S(=O)(=O)c1ccc(F)cc1 [Example 2, (S)-1-(4-fluorophenylsulfonyl)-2-methyl-N-((6-(6-(trifluoromethyl)pyridin-3-yl)pyrimidin-4-yl)methyl)azetidine-2-carboxamide]
0.229	O=C(NCc1cc(-c2ccc(C(F)(F)F)cc2)ncn1)[C@@H]1C[C@@H](F)CN1S(=O)(=O)c1cncc(F)c1 [Example 28, (2S,4R)-4-fluoro-1-(5-fluoropyridin-3-ylsulfonyl)-N-((6-(4-(trifluoromethyl)phenyl)pyrimidin-4-yl)methyl)pyrrolidine-2-carboxamide]
0.023	O=C(NCc1cc(-c2ccc(C(F)(F)F)cc2)ncn1)[C@@H]1C[C@@H](F)CN1S(=O)(=O)c1cccc(F)c1 [Example 6, (2S,4R)-4-fluoro-1-(3-fluorophenylsulfonyl)-N-((6-(4-(trifluoromethyl)phenyl)pyrimidin-4-yl)methyl)pyrrolidine-2-carboxamide]
0.03	O=C(NCc1cc(-c2ccc(C(F)(F)F)cc2)ncn1)[C@@H]1C[C@@H](F)CN1S(=O)(=O)c1ccc(F)c(F)c1 [Example 26, (2S,4R)-1-(3,4-difluorophenylsulfonyl)-4-fluoro-N-((6-(4-(trifluoromethyl)phenyl)pyrimidin-4-yl)methyl)pyrrolidine-2-carboxamide]
2.7	O=C(NCc1cc(-c2ccc(C3CC3)nc2)ncn1)[C@@H]1C[C@@H](F)CN1S(=O)(=O)c1ccc(F)cc1 [Example 23, (2S,4R)—N-((6-(6-cyclopropylpyridin-3-yl)pyrimidin-4-yl)methyl)-4-fluoro-1-(4-fluorophenylsulfonyl)pyrrolidine-2-carboxamide]
0.015	O=C(NCc1cc(-c2ccc(C(F)(F)F)cc2)ncn1)[C@@H]1C[C@@H](F)CN1S(=O)(=O)c1ccc(F)cc1 [Example 5, (2S,4R)-4-fluoro-1-(4-fluorophenylsulfonyl)-N-((6-(4-(trifluoromethyl)phenyl)pyrimidin-4-yl)methyl)pyrrolidine-2-carboxamide]
0.021	O=C(NCc1cc(N2CCC(C(F)(F)F)CC2)c(F)cn1)[C@@H]1C[C@@H](F)CN1S(=O)(=O)c1ccc(F)cc1 [Example 37, (2S,4R)-4-fluoro-N-((5-fluoro-4-(4-(trifluoromethyl)piperidin-1-yl)pyridin-2-yl)methyl)-1-(4-fluorophenylsulfonyl)pyrrolidine-2-carboxamide]
0.107	O=C(NCc1cc(-c2ccc(C3CC3)cc2)ncn1)[C@@H]1C[C@@H](F)CN1S(=O)(=O)c1ccc(F)cc1 [Example 10, (2S,4R)—N-((6-(4-cyclopropylphenyl)pyrimidin-4-yl)methyl)-4-fluoro-1-(4-fluorophenylsulfonyl)pyrrolidine-2-carboxamide]
0.126	O=C(NCc1cc(-c2ccc(C(F)(F)F)nc2)ncn1)[C@@H]1C[C@@H](F)CN1S(=O)(=O)c1ccc(F)c(F)c1 [Example 25, (2S,4R)-1-(3,4-difluorophenylsulfonyl)-4-fluoro-N-((6-(6-(trifluoromethyl)pyridin-3-yl)pyrimidin-4-yl)methyl)pyrrolidine-2-carboxamide]
0.049	N#Cc1ccc(S(=O)(=O)N2C[C@H](F)C[C@H]2C(=O)NCc2cn(-c3ccc(C(F)(F)F)cc3)nc2Cl)cc1 [Example 18, (2S,4R)—N-([3-chloro-1-[4-(trifluoromethyl)phenyl]-1H-pyrazol-4-yl]methyl)-1-[(4-cyanobenzene)sulfonyl]-4-fluoropyrrolidine-2-carboxamide]
0.02	O=C(NCc1cc(-c2ccc(C(F)(F)F)nc2)c(F)cn1)[C@@H]1C[C@@H](F)CN1S(=O)(=O)c1ccc(F)cc1 [Example 9, (2S,4R)-4-fluoro-N-((5′-fluoro-6-(trifluoromethyl)-3,4′-bipyridin-2′-yl)methyl)-1-(4-fluorophenylsulfonyl)pyrrolidine-2-carboxamide]
0.021	O=C(NCc1cc(-c2ccc(OC(F)(F)F)cc2)ncn1)[C@@H]1C[C@@H](F)CN1S(=O)(=O)c1ccc(F)cc1 [Example 21, (2S,4R)-4-fluoro-1-(4-fluorophenylsulfonyl)-N-((6-(4-(trifluoromethoxy)phenyl)pyrimidin-4-yl)methyl)pyrrolidine-2-carboxamide]
3	O=C(NCc1cc(-c2ccc(C(F)(F)F)nc2)ncn1)[C@@H]1C[C@@H](F)CN1S(=O)(=O)c1cncc(F)c1 [Example 27, (2S,4R)-4-fluoro-1-(5-fluoropyridin-3-ylsulfonyl)-N-((6-(6-(trifluoromethyl)pyridin-3-yl)pyrimidin-4-yl)methyl)pyrrolidine-2-carboxamide]
0.051	C[C@@]1(C(=O)NCc2cc(-c3ccc(C(F)(F)F)nc3)ncn2)CCCN1S(=O)(=O)c1ccc(F)cc1 [Example 1, (S)-1-(4-fluorophenylsulfonyl)-2-methyl-N-((6-(6-(trifluoromethyl)pyridin-3-yl)pyrimidin-4-yl)methyl)pyrrolidine-2-carboxamide]
0.029	O=C(NCc1cc(-c2ccc(C(F)(F)F)nc2)ncn1)[C@]1(C(F)F)CCCN1S(=O)(=O)c1ccc(F)cc1 [Example 31, (S)-2-(difluoromethyl)-1-(4-fluorophenylsulfonyl)-N-((6-(6-(trifluoromethyl)pyridin-3-yl)pyrimidin-4-yl)methyl)pyrrolidine-2-carboxamide]
0.087	Cc1nc(CNC(=O)[C@@H]2C[C@@H](F)CN2S(=O)(=O)c2ccc(F)cc2)cc(-c2ccc(C(F)(F)F)nc2)n1 [Example 22, (2S,4R)-4-fluoro-1-(4-fluorophenylsulfonyl)-N-((2-methyl-6-(6-(trifluoromethyl)pyridin-3-yl)pyrimidin-4-yl)methyl)pyrrolidine-2-carboxamide]
0.017	O=C(NCc1cc(-c2ccc(C(F)(F)F)nc2)ncc1F)[C@@H]1C[C@@H](F)CN1S(=O)(=O)c1ccc(F)cc1 [Example 8, (2S,4R)-4-fluoro-N-((5-fluoro-6′-(trifluoromethyl)-2,3′-bipyridin-4-yl)methyl)-1-(4-fluorophenylsulfonyl)pyrrolidine-2-carboxamide]
0.03	O=C(NCc1cc(C2=CCC(C(F)(F)F)CC2)ncn1)[C@@H]1C[C@@H](F)CN1S(=O)(=O)c1ccc(F)cc1 (stereo partly drawn) [Example 12, (2S,4R)-4-fluoro-1-(4-fluorophenylsulfonyl)-N-((6-(4-(trifluoromethyl)cyclohex-1-enyl)pyrimidin-4-yl)methyl)pyrrolidine-2-carboxamide]

Compound	IC50 [µM]
O=C(NCc1cc(-c2ccc(C(F)(F)F)nc2)ncn1)[C@@H]1[C@H](F)CCN1S(=O)(=O)c1ccc(F)cc1 [Example 36, (2R,3R)-3-fluoro-1-(4-fluorophenylsulfonyl)-N-((6-(6-(trifluoromethyl)pyridin-3-yl)pyrimidin-4-yl)methyl)pyrrolidine-2-carboxamide]	0.12

Test system: not listed separately
Assay: in vivo rat pharmacokinetic (PK) studies, plasma clearance
Details: plasma, read-out: Rat PK Clp

clearance [mL/min/kg]	Compound
13.2	O=C(NCc1cc(-c2ccc(OC(F)F)cc2)ncn1)[C@@H]1C[C@@H](F)CN1S(=O)(=O)c1ccc(F)cc1 [(2S,4R)-N-[[6-[4-(difluoromethoxy)phenyl]pyrimidin-4-yl]methyl]-4-fluoro-1-(4-fluorophenyl)sulfonyl-pyrrolidine-2-carboxamide]
98	O=C(NCc1cc(-c2ccc(C(F)(F)F)nc2)ncn1)[C@@H]1CCCN1S(=O)(=O)c1ccc(F)cc1 [(2S)-1-(4-fluorophenyl)sulfonyl-N-[[6-[6-(trifluoromethyl)-3-pyridyl]pyrimidin-4-yl]methyl]pyrrolidine-2-carboxamide]
9.9	O=C(NCc1cc(F)cc(-c2cnc(C(F)F)cn2)c1)[C@@H]1C[C@@H](F)CN1S(=O)(=O)c1ccc(F)cc1 [(2S,4R)-N-[[3-[5-(difluoromethyl)pyrazin-2-yl]-5-fluoro-phenyl]methyl] 4-fluoro-1-(4-fluorophenyl)sulfonyl-pyrrolidine-2-carboxamide]
11.3	C[C@@]1(F)C[C@@H](C(=O)NCc2cc(-c3ccc(C(F)(F)F)nc3)ncn2)N(S(=O)(=O)c2ccc(F)cc2)C1 [(2S,4R)-4-fluoro-1-(4-fluorophenyl)sulfonyl-4-methyl-N-[[6-[6-(trifluoromethyl)-3-pyridyl]pyrimidin-4-yl]methyl]pyrrolidine-2-carboxamide]

Compound	clearance [mL/min/kg]
COc1nc(CNC(=O)[C@@H]2C[C@@H](F)CN2S(=O)(=O)c2ccc(F)cc2)cc(-c2ccc(C(F)(F)F)nc2)n1 [(2S,4R)-4-fluoro-1-(4-fluorophenyl)sulfonyl-N-[[2-methoxy-6-[6-(trifluoromethyl)-3-pyridyl]pyrimidin-4-yl]methyl]pyrrolidine-2-carboxamide]	16.5
